Measured values reported in patent US8969542B2, “HPV polyepitope constructs and uses thereof” (priority 2007, dated 2015).
Where no end group is shown, it is not given here.

Tests used:
[1] = target: HLA A2302 (Homo sapiens, UniProt P04439, D101N/D140Y/D185E/E176V/E190D/F33S/G103R/G107R/H175R/I119L/I121M/I306V/K168Q/K335N/L105A/L180W/L300P/N151K/N90K/P307H/Q86E/Q94H/R106L/R138H/R89G/T104I/T345S/V100E/W191G/Y123F); assay: HLA class I competition binding assay using soluble HLA
[2] = target: HLA A2902 (Homo sapiens, UniProt P04439, A270S/D101N/D185E/E176V/E277Q/E87Q/F33T/G231S/H175R/I121M/I218V/I322F/K168Q/L300P/L318F/M331R/P208A/P217A/Q86L/T323A/T345S/V100A/V358M); assay: as above
[3] = target: HLA A2402 (Homo sapiens, UniProt P04439, D101N/D140Y/D185E/E176V/E190D/F33S/G103R/G107R/I119L/I121M/I306V/K335N/L105A/L180Q/L300P/N151K/N90K/Q86E/Q94H/R106L/R138H/R89G/T104I/T345S/V100E/W191G/Y123F); assay: as above
[4] = target: HLA A3002 (Homo sapiens, UniProt P04439, D101N/D140H/D185E/E176R/F33S/G80R/H175R/K168Q/Q94H/R138E/R41S/V100E); assay: as above
[5] = target: HLA A3101 (Homo sapiens, UniProt P04439, A270S/D185E/E176V/E277Q/F33T/G231S/G80R/H175R/I121M/I218V/I322F/K168Q/L300P/L318F/M331R/P217A/Q94H/R138Q/T323A/T345S/T97I/V358M); assay: as above
[6] = target: HLA A3301 (Homo sapiens, UniProt P04439, A270S/D185E/E176V/E277Q/E87N/F33T/G231S/H175R/I121M/I218V/I322F/K168Q/K210R/L300P/L318F/M331R/P217A/Q86R/Q94H/R138Q/T323A/T345S/T97I/V358M/Y195H); assay: as above
[7] = target: HLA A6801 (Homo sapiens, UniProt P04439, A269V/D185E/E176V/E277Q/E87N/F33Y/G231S/I121M/I166T/I218V/L180W/L300P/L318F/N151K/P208A/P217A/Q86R/R169H/T345S); assay: as above
[8] = system: CD8+ spleen cells of HLA transgenic mice (HLA-A01/Kb, F1 HLA-A02/KbxBalb/c, HLA-A11/Kb, HLA-A24/Kb); assay: Immunogenicity after HPV DNA construct immunization, direct ex vivo IFNγ ELISPOT; format: in vivo, mouse; settings: for Delta SFC/10^6 cells / Ratio: median of mouse pools; for ICCG6137 SFC/10^6 cells Delta / ICCG6137 SFC/10^6 cells Ratio: immunization with DNA construct ICCG 6137; for ICCG6137 SFC/10^6 cells Delta / ICCG6138 SFC/10^6 cells Delta: HLA transgenic mice (HLA-A01/A02/A11/A24), CD8+ cells restimulated with WT peptide 10 μg/mL; for ICCG6137 SFC/10^6 cells Delta / ICCG6137 SFC/10^6 cells Ratio / ICCG6138 SFC/10^6 cells Delta / ICCG6138 SFC/10^6 cells Ratio: IFNγ ELISPOT; for ICCG6137 SFC/10^6 cells Ratio / ICCG6138 SFC/10^6 cells Ratio: HLA transgenic mice, response ratio, WT peptide 10 μg/mL; for ICCG6138 SFC/10^6 cells Delta / ICCG6138 SFC/10^6 cells Ratio: immunization with DNA construct ICCG 6138
Experimental: The immunogenicity of HPV HLA class I-restricted epitopes encoded in the DNA constructs was tested in the relevant HLA transgenic mice. […] To ensure an equal distribution of mice between different groups, a randomisation procedure based on body weight was performed. Female and male mice (age between 8 and 24 weeks) were ranked by body weight, extreme light or heavy animals were excluded. The remaining animals were grouped by sequentially assigning animals for the 2 experiments.
Mice were pre-treated with cardiotoxin (Sigma, C9759) on day −4 by bilateral intramuscular injection of 100 μl (2×50 μl) of a 10 μM cardiotoxin solution. Four days later, all mice were immunised with 100 μg HPV-DNA plasmid (diluted to 1 mg/ml in PBS) by bilateral injection of 50 μg in the m. tibialis anterior. […]
(§1) Mice were euthanized and spleen cells (SPC) were isolated 13 days after immunization. […] Spleen cells of DNA- and peptide-immunized HLA-A11/Kb mice were analyzed individually. SPC of all negative control mice were pooled per 2 mice, resulting in 3 data points for each peptide tested.
(§2) A direct ex vivo IFNγ ELISPOT assay was used as surrogate CTL readout. Basically, purified CD8+ cells were incubated with the individual HPV-specific HLA-restricted peptides (10 μg/mL) loaded on the appropriate antigen presenting cells (APC), in anti-mouse IFNγ antibody-coated ELISPOT plates. […] After 20 h incubation, IFNγ-producing cells were visualized by further developing the plates with biotinylated anti-mouse IFNγ antibody, streptavidin-HRP and AEC as substrate.
(§3) Some of the CTL epitopes included in the DNA constructs are analoged sequences of the wild type viral epitopes. For these particular epitopes, only the wild type sequences were used as in vitro stimulus for CTL readout.

[9] = system: CD8+ spleen cells of HLA transgenic mice (HLA-A01/Kb, F1 HLA-A02/KbxBalb/c, HLA-A11/Kb, HLA-A24/Kb); assay: Immunogenicity after peptide pool/IFA immunization, direct ex vivo IFNγ ELISPOT; format: in vivo, mouse; settings: for Delta SFC/10^6 cells / Ratio: Peptide Pool, median of mouse pools; for Peptide Pool SFC/10^6 cells Delta / Peptide Pool SFC/10^6 cells Ratio: immunization with pool of peptides emulsified in IFA, IFNγ ELISPOT; for Peptide Pool SFC/10^6 cells Delta: HLA transgenic mice (HLA-A01/A02/A11/A24), CD8+ cells restimulated with WT peptide 10 μg/mL; for Peptide Pool SFC/10^6 cells Ratio: HLA transgenic mice, response ratio, WT peptide 10 μg/mL
Experimental: CTL binding epitopes were evaluated for their immunogenicity in different HLA transgenic mice. To this, a single immunization with CTL peptide pools together with a common HTL epitope emulsified in IFA was performed and up to 14 days later, CD8+ spleen cells were isolated and evaluated for epitope specificity using a direct ex vivo IFNγ ELISPOT assay.
Peptides were dissolved in DMSO at a concentration of 10 mg/mL. For each of the 4 DNA constructs, the corresponding HLA-restricted peptides were pooled per HLA type (5 to 7 CTL peptides/pool). A known HTL peptide ([…]) was added and the peptide pools were diluted in PBS to the required peptide concentration (i.e. 25 μg of each CTL peptide and 120 μg HTL peptide in 50 μl). After adding an equal volume of IFA (Pierce, lot DG56079), the mixture was emulsified by forcing it through a small orifice. Mice were immunized subcutaneously at the base of the tail with 50 μl peptide/IFA mixture.
As negative control for the peptide-immunized mice, 18 mice (in total) were injected with a PBS/IFA mixture.
as §1, §2, §3

[10] = HLA-A24 epitopes, HLA-A24/Kb mice, DNA construct ICCG6149
[11] = HLA-A24 epitopes, HLA-A24/Kb mice, DNA construct ICCG6150
[12] = HLA-A24 epitopes, HLA-A24/Kb mice
[13] = HLA-A02 epitopes, F1 HLA-A02/KbxBalb/c mice, DNA construct ICCG6149
[14] = HLA-A02 epitopes, F1 HLA-A02/KbxBalb/c mice, DNA construct ICCG6150
[15] = HLA-A02 epitopes, F1 HLA-A02/KbxBalb/c mice

Compound | IC50 [1] [nM] | IC50 [2] [nM] | IC50 [3] [nM] | IC50 [4] [nM] | other results
LYNLLIRCF [compound 44] | 10 | > 20000 |  |  | 
YYMTDAGTW [compound 40] |  | 3410 | 3.2 |  | 
VVFIYIPLF [compound 64] |  | 302 | 276 | 268 | 
TVSATQLVK [compound 33] |  |  |  |  | IC50 [5]: 6140 nM
VYQFAFKDL [compound 87] | 1.1 | > 20000 | 4 |  | 
LSSALEIPY [compound 46] |  |  |  | 175 | 
YYITETGIW [compound 85] | 2 | > 20000 | 8.5 | > 20000 | 
STAAALYWYK [compound 13] |  |  |  |  | IC50 [6]: 128 nM
RQMNMSQWIK [compound 79] |  |  |  |  | IC50 [5]: 45 nM; IC50 [7]: 2560 nM
VFTFPNPFPF [compound 62] | 12 | 603 |  | > 20000 | 
VYVCAFAWLL [compound 86] | 8.1 | 2350 | 8.4 | > 20000 | 
RTEVYQFAFR [compound 82] |  |  |  |  | IC50 [5]: 8 nM; IC50 [7]: 439 nM; IC50 [6]: 696 nM
HYTNWKFIF [compound 63] | 16 | 433 | 8.5 | 4850 | 
PYLHSRLVVF [compound 61] | 2.8 | 4370 | 38.7 |  | 
VFTFPHAFPF [compound 84] | 15.9 | 57 | 90.4 | > 20000 | 
143 (LYNLLIRWL; Human papillomavirus type 18-derived epitope) [compound 143] |  |  |  |  | Delta SFC/10^6 cells [8, 10]: 3 SFC/10^6 cells; Ratio [8, 10]: 1.0; Delta SFC/10^6 cells [8, 11]: 1 SFC/10^6 cells; Ratio [8, 11]: 1.0; Delta SFC/10^6 cells [9, 12]: 30 SFC/10^6 cells; Ratio [9, 12]: 1.5

Compound | IC50 [1] [nM] | IC50 [2] [nM] | IC50 [3] [nM] | IC50 [4] [nM] | other results
153 (HYTNWKFIY; Human papilloma virus) [compound 153] |  |  |  |  | ICCG6137 SFC/10^6 cells Delta [8]: 19 SFC/10^6 cells; ICCG6137 SFC/10^6 cells Ratio [8]: 1.3; ICCG6138 SFC/10^6 cells Delta [8]: 58 SFC/10^6 cells; ICCG6138 SFC/10^6 cells Ratio [8]: 1.3; Peptide Pool SFC/10^6 cells Delta [9]: 155 SFC/10^6 cells; Peptide Pool SFC/10^6 cells Ratio [9]: 2.7
FYSKVSEFRW [compound 65] | 8.8 | 1780 | 4.5 | 1360 | 
VYGTTLEKL [compound 66] | 8.2 | > 20000 | 26 | 1240 | 
152 (SVYGTTLEK; Human papillomavirus type 31) [compound 152] |  |  |  |  | ICCG6137 SFC/10^6 cells Delta [8]: 1050 SFC/10^6 cells; ICCG6137 SFC/10^6 cells Ratio [8]: 5.4; ICCG6138 SFC/10^6 cells Delta [8]: 1150 SFC/10^6 cells; ICCG6138 SFC/10^6 cells Ratio [8]: 9.7; Peptide Pool SFC/10^6 cells Delta [9]: 730 SFC/10^6 cells; Peptide Pool SFC/10^6 cells Ratio [9]: 6.2
LYGVSFSEL [compound 18] | 7.2 | > 20000 | 3.1 | > 20000 | 
STVSVGTAK [compound 34] |  |  |  |  | IC50 [6]: > 20000 nM
VYDFAFRDLCI [compound 20] | 8.9 | > 20000 | 22 | > 20000 | 
NTELYNLLI [compound 70] |  | > 20000 |  | > 20000 | 
154 (FYSRIRELRY; Human papilloma virus) [compound 154] |  |  |  |  | ICCG6137 SFC/10^6 cells Delta [8]: 45 SFC/10^6 cells; ICCG6137 SFC/10^6 cells Ratio [8]: 2.0; ICCG6138 SFC/10^6 cells Delta [8]: 33 SFC/10^6 cells; ICCG6138 SFC/10^6 cells Ratio [8]: 1.3; Peptide Pool SFC/10^6 cells Delta [9]: 165 SFC/10^6 cells; Peptide Pool SFC/10^6 cells Ratio [9]: 7.3
VYVFCFLLPM [compound 43] | 57 | 5280 | 178 | > 20000 | 
150 (TLQEIVLHL; Human papillomavirus type 45) [compound 150] |  |  |  |  | ICCG6137 SFC/10^6 cells Delta [8]: 5 SFC/10^6 cells; ICCG6137 SFC/10^6 cells Ratio [8]: 2.0; ICCG6138 SFC/10^6 cells Delta [8]: 3 SFC/10^6 cells; ICCG6138 SFC/10^6 cells Ratio [8]: 1.3; Peptide Pool SFC/10^6 cells Delta [9]: 70 SFC/10^6 cells; Peptide Pool SFC/10^6 cells Ratio [9]: 8.0
SYFGMSFIHF [compound 39] |  |  | 17.5 | 1540 | 
FYSRIRELRF [compound 88] | 1 |  | 3.2 | > 20000 | 
134 (GTLGIVCPI; Human papillomavirus type 16) [compound 134] |  |  |  |  | Delta SFC/10^6 cells [8, 13]: 1 SFC/10^6 cells; Ratio [8, 13]: 1.0; Delta SFC/10^6 cells [8, 14]: 3 SFC/10^6 cells; Ratio [8, 14]: 1.7; Delta SFC/10^6 cells [9, 15]: 55 SFC/10^6 cells; Ratio [9, 15]: 8.0
CC[C@H](C)[C@H](NC(=O)[C@H](Cc1ccc(O)cc1)NC(=O)[C@H](Cc1ccccc1)NC(=O)[C@@H](NC(=O)[C@H](CC(N)=O)NC(=O)[C@H](Cc1ccc(O)cc1)NC(=O)CN)[C@@H](C)O)C(=O)N[C@@H](CCC(=O)O)C(=O)N[C@@H](Cc1ccccc1)C(=O)O [compound 41] |  |  | 16 | 1260 | 
